The supplement of paper PMC10307832

Experiments:
Assay in all cases: relative viability (nuclei count vs DMSO), 5 days (fraction); higher = more cells survive
[1] = compound: C1=CC2=NC=CN=C2C=C1/C=C/3\C(=O)NC(=O)S3 + CC(C)C[C@H](NC(=O)[C@H](Cc1ccccc1)NC(=O)c1cnccn1)B(O)O [Bortezomib] (partner 0.002 µM)
Outline: (§1)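 Relative viability was taken as the ratio of nuclei in treated wells to nuclei in vehicle wells. Lung cancer cell lines in 1536-well plates received compounds by pin tool one day after seeding, either one drug alone or a fixed anchor-drug dose plus five library-drug doses (not always all listed) in √10 steps. Nuclei were counted on 4× images after 5 days of treatment, and values are medians of duplicate plates.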

BGJ398 + AZD7762 = compound: CCN1CCN(c2ccc(Nc3cc(N(C)C(=O)Nc4c(Cl)c(OC)cc(OC)c4Cl)ncn3)cc2)CC1 [BGJ398] + NC(=O)Nc1cc(-c2cccc(F)c2)sc1C(=O)N[C@H]1CCCNC1 [AZD7762] (partner 0.2 µM)
Outline: as §1

BGJ398 + Phenformin = compound: CCN1CCN(c2ccc(Nc3cc(N(C)C(=O)Nc4c(Cl)c(OC)cc(OC)c4Cl)ncn3)cc2)CC1 [BGJ398] + N=C(N)NC(=N)NCCc1ccccc1 [Phenformin] (partner 250 µM)
Outline: as §1

[2] = compound: C1=CC2=NC=CN=C2C=C1/C=C/3\C(=O)NC(=O)S3 + O=C(CCCCCCC(=O)Nc1ccccc1)NO [Vorinostat] (partner 1 µM)
Outline: as §1

Cell Line	relative viability ([1]; first compound 0.02 µM)	relative viability ([1]; first compound 0.06325 µM)	relative viability ([1]; first compound 0.2 µM)	relative viability ([1]; first compound 0.6325 µM)	relative viability ([1]; first compound 2 µM)	relative viability (BGJ398 + AZD7762; first compound 0.01 µM)	relative viability (BGJ398 + AZD7762; first compound 0.03162 µM)	relative viability (BGJ398 + AZD7762; first compound 0.1 µM)	relative viability (BGJ398 + AZD7762; first compound 0.3162 µM)	relative viability (BGJ398 + AZD7762; first compound 1 µM)	relative viability (BGJ398 + Phenformin; first compound 0.01 µM)	relative viability (BGJ398 + Phenformin; first compound 0.03162 µM)	relative viability (BGJ398 + Phenformin; first compound 0.1 µM)	relative viability (BGJ398 + Phenformin; first compound 0.3162 µM)	relative viability (BGJ398 + Phenformin; first compound 1 µM)	relative viability ([2]; first compound 0.02 µM)	relative viability ([2]; first compound 0.06325 µM)	relative viability ([2]; first compound 0.2 µM)	relative viability ([2]; first compound 0.6325 µM)	relative viability ([2]; first compound 2 µM)
HCC-44	0.818	0.958	0.869	0.883	0.71	0.98	1	1.01	1.02	0.862	0.213	0.349	0.193	0.195	0.161	0.959	1.13	1.08	1.13	1.17
HCC-827	0.981	0.912	1	1.05	0.973	0.26	–	0.212	0.121	0.256	0.323	–	0.432	0.317	0.413	0.797	0.702	0.833	0.874	0.465
NCI-H2347	0.769	1.17	1.05	0.932	0.926	0.811	0.801	0.837	0.814	0.851	0.292	0.602	0.507	0.434	0.496	0.53	0.565	0.718	0.49	0.591
PC-14	0.726	0.816	0.81	0.882	0.81	0.403	–	0.387	0.176	0.249	0.586	–	0.642	–	0.369	0.799	0.713	1.01	0.689	0.571
NCI-H1651	0.956	0.637	0.949	0.96	0.893	0.465	0.442	0.478	0.374	0.471	0.303	0.394	0.381	0.325	0.274	0.504	0.502	0.6	0.588	0.483
HARA	1.11	1.18	1.26	1.09	1.15	0.429	0.418	0.461	0.373	0.334	0.442	0.545	0.482	0.319	0.382	0.548	0.463	0.522	0.487	0.406
LU99A	1.09	1.32	1.41	1.07	0.747	0.429	0.336	0.4	0.234	0.273	0.937	0.934	0.925	0.765	0.765	0.425	0.515	0.506	0.42	0.268
NCI-H1355	1.02	1.23	1.18	1.2	1.05	0.697	0.818	0.748	0.677	0.713	0.44	0.465	0.454	0.464	0.423	0.584	0.571	0.623	0.631	0.519
HCC-78	0.497	0.378	0.588	0.346	0.275	0.609	0.536	0.557	0.61	0.608	0.67	0.609	0.735	0.731	0.607	0.464	0.428	0.379	0.449	0.349
HCC-15	1.01	0.995	1.04	0.99	0.966	1.15	1.06	1.24	1.17	1.39	0.439	0.497	0.504	0.475	0.496	0.733	0.737	0.872	0.844	0.702
EKVX	0.906	1.07	0.969	0.911	0.871	0.778	0.772	0.746	0.686	0.634	0.216	0.211	0.235	0.234	0.209	0.704	0.576	0.761	0.709	0.594
NCI-H2087	0.831	0.942	0.68	0.809	0.805	1.13	1.23	1.23	1.45	1.5	0.44	0.438	0.507	0.386	0.494	0.536	0.742	0.58	0.646	0.469
NCI-H1437	0.475	0.647	0.564	0.475	0.408	1.13	1.23	1.14	1.17	1.19	0.265	0.34	0.314	0.268	0.281	0.728	0.874	0.815	0.811	0.815
ABC-1	0.3	0.263	0.328	0.261	0.27	0.713	0.964	0.898	0.572	1.13	0.287	0.255	0.262	0.22	0.213	1.27	1.16	1.56	1.01	0.912
NCI-H838	0.711	0.908	0.878	0.595	0.684	0.861	0.915	1.04	0.782	0.756	0.446	0.549	0.612	0.437	0.305	0.674	0.702	0.762	0.686	0.579
A-427	0.991	1.1	1.04	0.915	0.965	0.688	0.685	0.599	0.43	0.565	0.354	0.336	0.273	0.151	0.211	0.791	0.877	0.888	0.864	0.947
NCI-H1792	0.863	0.734	0.928	0.952	0.688	0.678	0.595	0.784	0.646	0.718	0.288	0.233	0.259	0.315	0.262	–	–	–	–	–

Cell Line	relative viability ([1]; first compound 0.02 µM)	relative viability ([1]; first compound 0.06325 µM)	relative viability ([1]; first compound 0.2 µM)	relative viability ([1]; first compound 0.6325 µM)	relative viability ([1]; first compound 2 µM)	relative viability (BGJ398 + AZD7762; first compound 0.01 µM)	relative viability (BGJ398 + AZD7762; first compound 0.03162 µM)	relative viability (BGJ398 + AZD7762; first compound 0.1 µM)	relative viability (BGJ398 + AZD7762; first compound 0.3162 µM)	relative viability (BGJ398 + AZD7762; first compound 1 µM)	relative viability (BGJ398 + Phenformin; first compound 0.01 µM)	relative viability (BGJ398 + Phenformin; first compound 0.03162 µM)	relative viability (BGJ398 + Phenformin; first compound 0.1 µM)	relative viability (BGJ398 + Phenformin; first compound 0.3162 µM)	relative viability (BGJ398 + Phenformin; first compound 1 µM)	relative viability ([2]; first compound 0.02 µM)	relative viability ([2]; first compound 0.06325 µM)	relative viability ([2]; first compound 0.2 µM)	relative viability ([2]; first compound 0.6325 µM)	relative viability ([2]; first compound 2 µM)
LCLC-97TM1	0.624	0.515	0.573	0.776	0.125	0.251	0.217	0.225	0.208	0.249	0.393	0.446	0.442	0.429	0.44	0.617	0.637	0.659	0.576	0.153
NCI-H1703	0.288	0.322	0.38	0.474	0.489	0.117	0.136	0.111	0.122	0.123	–	–	–	–	–	–	–	–	–	–
LCLC-103H	1.08	1.05	1.06	1	0.931	0.796	0.86	0.804	0.658	0.656	0.317	0.331	0.336	0.284	0.277	0.694	0.804	0.846	0.685	0.651
PC-3 [JPC-3]	0.735	0.853	0.879	0.851	0.852	0.853	–	0.781	–	0.837	0.468	–	0.445	0.418	0.46	0.939	0.874	0.92	0.766	0.654
BEN	0.803	0.982	0.904	0.566	0.705	0.729	0.648	0.687	0.583	0.578	0.263	0.284	0.284	0.261	0.241	0.506	0.553	0.539	0.52	0.477
NCI-H1666	0.834	0.854	1.06	0.649	0.673	0.95	0.784	0.866	0.703	0.728	0.55	0.609	0.622	0.581	0.557	0.912	0.927	0.968	0.984	0.785
LC-2-ad	0.964	1.02	1.09	0.943	0.829	0.886	0.802	0.852	0.893	0.957	0.58	0.604	0.655	0.573	0.503	0.589	0.768	0.707	0.668	0.434
ChaGo-K-1	1.05	1.65	1.16	0.952	0.868	0.904	0.85	0.903	0.898	0.881	0.488	0.47	0.525	0.487	0.458	0.742	0.544	0.756	0.662	0.652
NCI-H1975	0.355	0.365	0.401	0.368	0.36	0.767	0.711	0.78	0.666	0.606	0.415	0.409	0.475	0.412	0.356	0.683	0.734	0.735	0.731	0.674
NCI-H1993	0.892	1.02	1.05	0.952	0.724	0.953	0.85	0.593	0.94	0.803	0.554	0.485	0.479	0.523	0.575	0.734	0.843	1.08	0.767	0.008
RERF-LC-KJ	1.25	1.17	1.23	1.14	1.11	0.858	1	0.987	0.819	0.295	0.449	0.422	0.416	0.432	0.493	0.714	0.717	0.689	0.63	0.635
NCI-H23	0.954	1.37	1.27	0.843	0.678	0.228	0.267	0.252	0.232	0.225	0.688	0.904	0.811	0.761	0.756	0.508	0.588	0.697	0.546	0.385
HCC-366	1	1.02	1.05	1.06	1.01	0.235	0.301	0.281	0.276	0.252	0.632	0.672	0.6	0.613	0.673	0.293	–	0.436	0.305	0.204
NCI-H2342	–	–	–	–	–	0.513	0.565	0.542	0.496	0.437	0.574	0.629	0.704	0.572	0.657	0.677	0.781	0.799	0.731	0.636
NCI-H522	–	–	–	–	–	0.864	0.686	0.812	0.836	0.853	0.585	0.599	0.692	0.593	0.603	0.768	0.839	1.22	0.75	0.795
NCI-H2170	–	–	–	–	–	0.906	0.843	1.01	0.861	0.912	0.374	0.428	0.448	0.393	0.341	0.732	0.583	0.846	0.776	0.878
NCI-H1793	–	–	–	–	–	0.466	0.406	0.473	0.434	0.419	0.361	0.351	0.387	0.334	0.293	0.635	0.616	0.765	0.676	0.679
